This is an account of results in US5886022A, “Substituted cycloalkanecarboxylic acid derivatives as matrix metalloprotease inhibitors” (priority 1997, dated 1999).

The conditions of test [1]: fenbufen analogs, literature; cited from earlier work.
Test [2] has as its target T1, MMP-9 (Gelatinase-B, 92 kDa) (Homo sapiens, UniProt P14780).
T1 construct: from tissue; host or cells: human polymorphonuclear leukocytes from fresh whole blood (New York Blood Center), PMA-stimulated supernatant, purified
The test is described as follows: Thiopeptilide MMP-9 Inhibition Assay. Type of test: biochemical. As to conditions: x (n): average IC50 of n separate determinations. As to the method: MMP-9 was isolated modifying the previously described procedures of Hibbs et al (J. Biol. Chem., 260, 2493-2500, 1984) and Wilhelm et al (J. Biol. Chem., 264, 17213-17221, 1989). Briefly, polymorphonuclear leukocytes (PMN) preparations were isolated as described above from 3 or more units of freshly drawn whole blood obtained from the New York Blood Center (N.Y., N.Y.). Cells were resuspended in phosphate buffered saline (PBS) containing 100 ng/ml phorbol myristate acetate (PMA) in the presence of 50 mM di-isopropylfluorophospate (DFP), 1 μg/ml leupeptin and aprotinin, and 1 mg/ml catalase for 1 hr at 37° C. Supernatants were collected by centrifugation (300×g) and the samples were frozen at -70° C. All chromatographic methods were performed at 4° C. Thawed samples were concentrated 5-fold using an Amicon chamber equipped with a YM-10 membrane. The concentrate was pressure dialyzed against 0.02M Tris-HCl, 0.1M NaCl, 1 mM CaCl2, 1 μM ZnCl2, 0.001 % Brij-35, 0.02% sodium azide (NaN3), pH 7.5 and applied to DEAE ion exchange chromatography resin which was previously equilibrated with the same buffer at a flow rate of 0.4 ml/min. The column was extensively washed with the same buffer and gelatinase was eluted as 4 ml fractions from the column with 0.02M Tris-HCl, 0.5M NaCl, 1 mM CaCl2, 1 μM ZnCl2, 0.001% Brij-35, 0.02% NaN3, pH 7.5. Gelatinase containing fractions were observed by gelatin zymography (see below), loaded onto a gelatin agarose affinity resin and washed with the same buffer. Gelatinase activity was eluted at a flow rate of 1 ml/min from the column as 1 ml fractions with 0.02M Tris-HCl, 1M NaCl, 1 mM CaCl2, 1 μmM ZnCl2, 0.001% Brij-35, 0.02% NaN3, pH 7.5 containing 10% dimethyl sulfoxide (DMSO). The fractions containing gelatinase activity were pooled and dialyzed against 0.005M Tris-HCl, 5 mM NaCl, 0.5 mM CaCl2, 0.1 μM ZnCl2, 0.001% Brij-35, pH 7.4. The protein content associated with material was determined with a micro-BCA assay (Pierce, Rockford, Ill.), lyophilized and reconstituted to a desired working concentration (100 μg/ml).
Progelatinase (10 μg/ml) isolated from human PMNs (described above) was activated with 1 mM 4-aminophenylmercuric acetate (APMA) in 50 mM Tris-HCl, 200 mM NaCl, 5 mM CaCl2, 0.001% Brij-35, pH 7.6 at 37° C. for 16 hr. The activated enzyme was dialyzed against the above buffer to remove APMA. The thiopeptolide spectrophotometric ( Weingarten, H., Feder, J., Anal. Biochem., 147, 437-440, 1985) substrate hydrolysis assay was modified to a micro-assay format. Spectrophotometric analysis of MMP-9 activity required a 1000-fold dilution of activated MMP-9 (10 ng/ml, 0.14 nM) in assay buffer comprised of 50 mM 4-(2-hydroxyethyl)1-piperazine ethane sulfonic acid (HEPES), 0.15M NaCl, 10 mM CaCl2, 0.001% Brij-35, pH 6.5 between 100 and 1000-fold for enzyme assays. Reaction mixtures for inhibitor studies contained 1 mM Ac-Pro-Leu-Gly-S-Leu-Leu-Gly-o-ethyl thiopeptolide substrate dissolved in HEPES assay buffer pH 6.5, along with 0.5 mM 5,5'-dithio-bis-(nitrobenzoicacid), drug concentrations ranging from 0.5 nM to 5 μM and activated enzyme (10-100 ng) in a total volume of 130 μl. The hydrolysis of substrate was monitored at 405 nm using an automated plate reader (Molecular Devices, Menlo Park, Calif.). Enzyme mediated substrate hydrolysis was corrected for non-enzymatic hydrolysis of the substrate by the subtraction of values from control samples incubated in the absence of enzyme. Drug efficacy was reported as the percent inhibition of enzyme activity calculated as:
(Control Values-Treated Values)/Control Values×100
Two way analysis of variance was used to determine significance between individual test groups.
(§1) All IC50 values are expressed as nM. When "I=x %" is shown, x presents the % inhibition at 5 μM. When "x (n)" is shown, x is the erage IC50 value of n separate determinations.

The target in test [3] is T2, MMP-3 (recombinant stromelysin) (Homo sapiens, UniProt P08254).
T2 construct: Expression and Purification of Recombinant Truncated Prostromelysin (MMP-3); made in house
Put plainly: Secondary P218 Quenched fluorescence Assay for MMP-3 Inhibition. Format: biochemical.
Text: Truncated Prostromelysin-257 was expressed in a soluble form in E.coli as described by Marcy et al., Biochemistry, 30, 6476-6483, 1991. Soluble truncated prostromelysin was purified by a modification of the monoclonal antibody affinity chromatography method described by Housley et al., J. Biol. Chem., 268, 4481-87, 1993.
This assay was originally described by Knight et al., FEBS Letters, 296, 263-266, 1992, for a related substrate. The assay is run continuously in a 3.Oml cuvette using a Perkin-Elmer LS 50 B Spectrofluorimeter at 25° C. in a final volume of 2.0 mls. P218 substrate (10 mM) in 100% DMSO is diluted to a final concentration of 2.0 micromolar (μM) into assay buffer: 50 mM MES, pH 6.5 containing 150 mM NaCl, 10 mM CaCl2, 0.005% Brij-35, and 1%(v/v) DMSO. Test compounds(10 mM) in DMSO are diluted in assay buffer at an initial concentration of 10 to 100 micromolar. […] The reaction is initiated by the addition of recombinant stromelysin (MMP-3) at a final concentration of 1.0 nM. Upon peptide cleavage, the fluorescent MCA group was detected using an excitation wavelength of 328 nanometers and an emission wavelength of 393 nanometers. The assay is linear from 0.2 to 5 nM MMP-3 concentration and percent inhibition is calculated as described above for the primary thiopeptilide assay and IC50 values are determined by a linear regression analysis of percent inhibition versus log drug concentration. The peptide sequence of the MCA substrate, hereinafter esignated P218, is shown below:
MCA-Pro-Lys-Pro-Leu-Ala-Leu-DPA-Ala-Arg-NH2 P218
as §1

In test [4] the target is T3, MMP-3 (recombinant truncated stromelysin) (Homo sapiens, UniProt P08254).
T3 construct: made in house; host or cells: E. coli
The test is described as follows: Primary Thiopeptilide MMP-3 Inhibition Assay. Type of test: biochemical. The settings on record: x (n): average IC50 of n separate determinations.
Protocol: Reaction mixtures for inhibitor studies contained 1 mM Ac-Pro-Leu-Gly-S-Leu-Leu-Gly-o-ethyl thiopeptolide substrate dissolved in HEPES assay buffer pH 6.5, along with 0.5 mM 5,5'-dithio-bis-(nitrobenzoicacid), drug concentrations ranging from 0.5 nM to 5 μM and activated enzyme (10-100 ng) in a total volume of 130 μl. […] Enzyme mediated substrate hydrolysis was corrected for non-enzymatic hydrolysis of the substrate by the subtraction of values from control samples incubated in the absence of enzyme. Drug efficacy was reported as the percent inhibition of enzyme activity calculated as:
Enzyme: recombinant stromelysin expressed in E.coli and purified as described above. […] The protocols for the assay of compounds as stromelysin inhibitors was the same as that used for MMP-9 except that the assay buffer was 50 mM MES, pH 6.5 containing 150mM NaCl, 10 mM CaCl2, 0.005% Brij, and 1% DMSO.
All IC50 values are expressed as nM. […] When "x (n)" is shown, x is the erage IC50 value of n separate determinations.

T2 sequence (P08254 100-274 limits assumed): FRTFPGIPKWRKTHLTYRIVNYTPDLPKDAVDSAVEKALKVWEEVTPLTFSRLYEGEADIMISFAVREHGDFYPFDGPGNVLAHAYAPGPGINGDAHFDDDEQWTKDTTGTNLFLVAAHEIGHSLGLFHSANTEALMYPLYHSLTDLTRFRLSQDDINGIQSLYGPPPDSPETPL
T3 sequence (P08254 100-274 limits assumed): as above
T1 sequence (P14780 107-707 limits assumed): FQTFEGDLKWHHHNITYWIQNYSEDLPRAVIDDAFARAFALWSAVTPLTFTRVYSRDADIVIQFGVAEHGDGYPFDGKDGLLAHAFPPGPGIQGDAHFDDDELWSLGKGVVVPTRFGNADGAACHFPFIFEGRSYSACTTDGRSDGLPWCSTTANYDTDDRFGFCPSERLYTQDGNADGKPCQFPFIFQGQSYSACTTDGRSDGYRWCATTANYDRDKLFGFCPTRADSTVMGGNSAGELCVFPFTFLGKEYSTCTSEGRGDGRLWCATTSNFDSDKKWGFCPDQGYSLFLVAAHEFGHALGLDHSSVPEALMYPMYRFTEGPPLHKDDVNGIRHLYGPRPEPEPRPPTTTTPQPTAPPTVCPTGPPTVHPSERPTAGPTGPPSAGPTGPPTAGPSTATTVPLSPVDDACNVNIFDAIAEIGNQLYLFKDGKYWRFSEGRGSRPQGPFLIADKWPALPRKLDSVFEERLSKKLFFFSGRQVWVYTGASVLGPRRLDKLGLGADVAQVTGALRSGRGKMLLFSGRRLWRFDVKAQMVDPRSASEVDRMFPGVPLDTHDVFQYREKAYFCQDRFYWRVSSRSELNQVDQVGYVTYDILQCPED

Regarding `CC(CC(=O)c1ccc(-c2ccccc2)cc1)C(=O)O` (stereo not shown) [XLVIII], in test [1], the activity in words result was “inactive”.
As to `O=C(O)[C@@H]1[C@@H](C(=O)c2ccc(-c3ccc(Cl)cc3)cc2)CC[C@H]1Sc1ccccc1` (single isomer, unassigned) [Example 211, Cyclopentanecarboxylic acid, 2-[(4'-chloro[1,1'-biphenyl]-4-yl)carbonyl]-5-(phenylthio)-, [1S-(1α,2β,5β)]-], the IC50 (as a rule, the concentration that inhibits the measured activity by half) in test [2] is 25 nM; in test [3] (P218 substrate, x (n): average IC50 of n separate determinations, read-out: MMP-3 Fluorogenic IC50) it was 12 nM; in test [4], 26 nM.
Take “MCA-Pro-Lys-Pro-Leu-Ala-Leu-DPA-Ala-Arg-NH2 [Example P218, reference compound]”: in test [3] (pH 6.5), the “cat/Km value of substrate for MMP-3” value is listed as 56,000 M^-1 sec^-1. The Michaelis-Menten constant (Km) (in general, the concentration of substrate that gives half-maximal velocity) in test [3] (pH 6.5, read-out: Km of substrate for MMP-3) was 16 µM.
On to `O=C(O)CC(C(=O)c1ccc(-c2ccccc2)cc1)c1ccccc1` (stereo not shown) [LXXVII], for which the activity in words entry in test [1] was “inactive”.
